Laboratory results: patent US8609680B2, “2,3-dihydro-1H-inden-1-yl-2,7-diazaspiro[3.5] nonane derivatives” (Pfizer Inc., priority 2010, dated 2013)
Read-outs that look alike come from different tables or passages of the source.

Key:
human GHSR1a [1] = molecular target: T1, human GHSR1a (Homo sapiens, UniProt Q92847); assay: Human Ghrelin SPA Binding Assay
T1 construct: expressed in transfected cells; host or cells: HEK293 Tetracycline-Inducible cell line, used as membranes
Excerpt: The SPA format was utilized for high throughput screening of test compounds and filter binding served for more comprehensive binding characterization.
Human Ghrelin SPA Binding Assay

human GHSR1a [2] = molecular target: T1, human GHSR1a; assay: Human Ghrelin Functional Assay (DELFIA GTP-binding assay); format: biochemical; settings: GTP-Europium exchange, human GHSR1a membranes, with and without ghrelin at EC80
Method: Human Ghrelin Functional Assay
To measure the ability of test compounds in the present invention to modulate the activity of human GHSR1a (agonize, antagonize, partially agonize, inversely agonize), a DELFIA GTP-binding assay (Perkin Elmer, AD0260 and AD0261) is performed. The assay monitors the ligand-dependent exchange of GDP for GTP. GPCR activation results in an increase in fluorescence as receptor-bound GDP is replaced by Europium-labeled GTP.
Ghrelin functional assays are performed in a final volume of 39.5 μl containing 720 ng human GHSR1a (HEK293 Tetracycline-Inducible cell line expressing the human growth secretagogue receptor la, prepared as membranes), 9 nM GTP-Europium and varying concentrations of test compound or vehicle. To test for receptor antagonism, membranes are incubated in the presence of agonist ghrelin (Anaspec, 24158) at the EC80 concentration, plus test compound or vehicle.
Briefly, test compounds are prepared at room temperature in 384-well plates (Matrix, 4340). […] Samples are then transferred as 6 μl to 384-well filter plates (Pall, 5071) containing 30 μl of 24 μg/ml hGHSR1a membrane and 0.35 mg/ml saponin (Perkin Elmer, AD0261) in basal buffer.
The mixture is incubated 24 minutes at room temperature with gentle shaking, followed by the addition of 3.5 μl of 100 nM GTP-Europium in 50 mM HEPES, pH 7.4. Samples are shielded from light and incubated for 90 minutes further at room temperature with gentle shaking. The reactions are suctioned dry with vacuum, washed three times with 75 μl ice cold 1× GTP Wash Solution (Perkin Elmer, AD0261), and immediately read on the Envision 2101 Multilabel Reader (Perkin Elmer) using excitation filter 320 nm and emission filter 615 nm.

[3] = SPA format, [125I] ghrelin displacement, human GHSR1a membranes, Ki=IC50/(1+[ligand]/Kd)

T1 sequence (Q92847 whole entry): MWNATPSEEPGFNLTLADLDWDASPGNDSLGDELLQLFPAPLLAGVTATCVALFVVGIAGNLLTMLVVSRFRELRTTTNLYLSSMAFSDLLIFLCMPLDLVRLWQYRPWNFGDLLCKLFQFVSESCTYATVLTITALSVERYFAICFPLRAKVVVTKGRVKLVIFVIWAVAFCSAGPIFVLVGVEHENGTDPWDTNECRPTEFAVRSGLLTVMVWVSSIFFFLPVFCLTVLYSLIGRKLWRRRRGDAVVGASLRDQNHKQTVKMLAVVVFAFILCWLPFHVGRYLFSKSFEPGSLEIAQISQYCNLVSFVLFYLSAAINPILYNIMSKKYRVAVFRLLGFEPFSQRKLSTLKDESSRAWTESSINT

Compound | Ki (human GHSR1a [1]; [3]) [nM] | functional comment (human GHSR1a [2]) | IC50 (human GHSR1a [1]) [nM] | Ki (human GHSR1a [1]) [nM] | IC50 (human GHSR1a [1]; SPA format, [125I] ghrelin displacement, human GHSR1a membranes from HEK293 Tetracycline-Inducible cell line) [nM]
5-{(1R)-1-[7-(2,3-dihydro[1,4]dioxino[2,3-b]pyridin-6-yl)acetyl)-2,7-diazaspiro[3.5]non-2-yl]-2,3-dihydro-1H-inden-5-yl}pyridine-2-carboxamide [Example 9A] | 13.9 | inverse agonist | – | – | 15.9
COc1ccc(CC(=O)N2CCC3(CC2)CN(C2CCc4cc(-c5cc(C#N)ccn5)ccc42)C3)nc1 (racemic) [Example 2C] | – | inverse agonist | 13.7 | 38 | –
COc1ccc(CC(=O)N2CCC3(CC2)CN(C2CCc4cc(-c5cnccn5)ccc42)C3)nc1 (racemic) [Example 2H] | – | inverse agonist | 92.2 | 218 | –
COc1ccc(CC(=O)N2CCC3(CC2)CN(C2CCc4cc(-c5cccc(C)n5)ccc42)C3)nc1 (racemic) [Example 2J] | – | inverse agonist | 22 | – | –
CCc1cnc(-c2ccc3c(c2)CC[C@H]3N2CC3(CCN(C(=O)Cc4ccc(OC)cn4)CC3)C2)nc1 [Example 3A, 2-[(1R)-5-(5-Ethylpyrimidin-2-yl)-2,3-dihydro-1H-inden-1-yl]-7-[(5-methoxypyridin-2-yl)acetyl]-2,7-diazaspiro[3.5]nonane] | 9.03 | inverse agonist | 9.46 | – | –
COc1ccc(CC(=O)N2CCC3(CC2)CN([C@@H]2CCc4cc(-c5ncco5)ccc42)C3)cc1 [Example 3AD] | – | inverse agonist | 19.5 | 15.5 | –
O=C(Cc1ccc(C2CC2)cn1)N1CCC2(CC1)CN([C@@H]1CCc3cc(-c4ncccn4)ccc31)C2 [Example 3AF] | – | inverse agonist | 7.41 | 6.13 | –
Cc1cc(C)nc(-c2ccc3c(c2)CC[C@H]3N2CC3(CCN(C(=O)Cc4cn5nc(C)sc5n4)CC3)C2)n1 [Example 3AL] | – | inverse agonist | 7.73 | 6.91 | –
Cc1cc(-c2ccc3c(c2)CC[C@H]3N2CC3(CCN(C(=O)Cc4cn5nc(C)sc5n4)CC3)C2)nc(C)n1 [Example 3AO] | – | inverse agonist | 16.8 | 15.1 | –
CCc1ccc(CC(=O)N2CCC3(CC2)CN([C@@H]2CCc4cc(-n5nccn5)ccc42)C3)nc1 [Example 5D] | 16.1 | – | 18.6 | – | –
Cc1ccc(CC(=O)N2CCC3(CC2)CN([C@@H]2CCc4cc(-c5ncccn5)ccc42)C3)cc1 [Example 5E] | – | – | 18.6 | 15.6 | –
CCc1ccc(CC(=O)N2CCC3(CC2)CN([C@@H]2CCc4cc(-c5ncccn5)ccc42)C3)cc1 [Example 5F] | – | – | 12.8 | 10.4 | –
Cc1ccc(CC(=O)N2CCC3(CC2)CN([C@@H]2CCc4cc(-n5nccn5)ccc42)C3)nc1 [Example 6A, 7-[(5-methylpyridin-2-yl)acetyl]-2-[5-(2H-1,2,3-triazol-2-yl)-2,3-dihydro-1H-inden-1-yl]-2,7-diazaspiro[3.5]nonane] | – | – | – | 54.8 | –
CCOc1ccc(CC(=O)N2CCC3(CC2)CN([C@@H]2CCc4cc(-n5nccn5)ccc42)C3)nc1 [Example 6G] | – | – | 43.2 | 34.4 | –
COc1ccc(CC(=O)N2CCC3(CC2)CN([C@@H]2CCc4cc(-n5cncn5)ccc42)C3)nc1 [Example 6I] | – | – | 483 | 417 | –
COc1ccc(CC(=O)N2CCC3(CC2)CN([C@@H]2CCc4cc(-c5nnc(C)s5)ccc42)C3)nc1 [Example 6J] | – | – | 327 | 264 | –
Cc1ccc(CC(=O)N2CCC3(CC2)CN([C@@H]2CCc4cc(-c5ncccn5)ccc42)C3)c(C(N)=O)c1 [Example 7A] | – | – | 42.2 | 37.5 | –
COc1ccc(CC(=O)N2CCC3(CC2)CN([C@@H]2CCc4cc(-c5ncccn5)ccc42)C3)c(C(N)=O)c1 [Example 7B] | – | – | 25.5 | 22.2 | –
COc1ccc(CC(=O)N2CCC3(CC2)CN([C@@H]2CCc4cc(-n5cc(C)cn5)ccc42)C3)nc1 [Example 8A, 7-[(5-methoxypyridin-2-yl)acetyl]-2-[(1R)-5-(4-methyl-1H-pyrazol-1-yl)-2,3-dihydro-1H-inden-1-yl]-2,7-diazaspiro[3.5]nonane] | – | – | 29 | 24.7 | –
COc1ccc(CC(=O)N2CCC3(CC2)CN([C@@H]2CCc4cc(-n5cc(C)cn5)ccc42)C3)cc1 [Example 8B] | – | – | 10.5 | 8.97 | –
COc1ccc(CC(=O)N2CCC3(CC2)CN([C@@H]2CCc4cc(-c5ccc(C(N)=O)nc5)ccc42)C3)nc1 [Example 9B] | – | – | 55.2 | 47.5 | –
Cc1cn2cc(CC(=O)N3CCC4(CC3)CN([C@@H]3CCc5cc(-c6ccc(C(N)=O)nc6)ccc53)C4)nc2s1 [Example 9D] | – | – | 12.2 | 10.6 | –
COc1ccc(CC(=O)N2CCC3(CC2)CN([C@@H]2CCc4cc(-c5cnc(C(N)=O)cn5)ccc42)C3)nc1 [Example 10A, 5-[(1R)-1-{7-[(5-methoxypyridin-2-yl)acetyl]-2,7-diazaspiro[3.5]non-2-yl}-2,3-dihydro-1H-inden-5-yl]pyrazine-2-carboxamide] | – | – | 62.6 | 55.5 | –
Cc1ccn2cc(CC(=O)N3CCC4(CC3)CN([C@@H]3CCc5cc(-c6cnc(C(N)=O)cn6)ccc53)C4)nc2c1 [Example 10B] | – | – | 23.4 | 20.3 | –
NC(=O)c1cnc(-c2ccc3c(c2)CC[C@H]3N2CC3(CCN(C(=O)Cc4cn5ccccc5n4)CC3)C2)cn1 [Example 10C] | – | – | 93.1 | 80.8 | –
COc1ccc(CC(=O)N2CCC3(CC2)CN([C@@H]2CCc4cc(-c5ccc(C(N)=O)cn5)ccc42)C3)nc1 [Example 11A, 6-((R)-1-{7-[2-(5-Methoxy-pyridin-2-yl)-acetyl]-2,7-diaza-spiro[3.5]non-2-yl}indan-5-yl)-nicotinamide] | – | – | 33.3 | 28.6 | –

More lines, main results first:

Ki (human GHSR1a [1]; [3]) [nM] | functional comment (human GHSR1a [2]) | IC50 (human GHSR1a [1]) [nM] | Ki (human GHSR1a [1]) [nM] | Compound | IC50 (human GHSR1a [1]; SPA format, [125I] ghrelin displacement, human GHSR1a membranes from HEK293 Tetracycline-Inducible cell line) [nM]
– | inverse agonist | 35.9 | 50.2 | COc1ccc(CC(=O)N2CCC3(CC2)CN(C2CCc4cc(-c5cc(OC)ncn5)ccc42)C3)nc1 (racemic) [Example 2F] | –
– | inverse agonist | 15.3 | 51.2 | COc1ccc(CC(=O)N2CCC3(CC2)CN(C2CCc4cc(-c5nc(C)cc(C)n5)ccc42)C3)nc1 (racemic) [Example 2I] | –
– | inverse agonist | 22.7 | 91.3 | COc1ccc(CC(=O)N2CCC3(CC2)CN(C2CCc4cc(-c5ccc(OC)cn5)ccc42)C3)nc1 (centres unmarked) [Example 2A, 7-[(5-Methoxypyridin-2-yl)acetyl]-2-[5-(5-methoxypyridin-2-yl)-2,3-dihydro-1H-inden-1-yl]-2,7-diazaspiro[3.5]nonane] | –
– | inverse agonist | 9.8 | 8.59 | CCc1cc(-c2ccc3c(c2)CC[C@H]3N2CC3(CCN(C(=O)Cc4ccc(OC)cn4)CC3)C2)ncn1 [Example 3AA] | –
– | inverse agonist | 16.6 | 14.9 | Cc1cnc(-c2ccc3c(c2)CC[C@H]3N2CC3(CCN(C(=O)Cc4cn5nc(C)sc5n4)CC3)C2)nc1 [Example 3AN] | –
– | inverse agonist | 27.2 | 24.4 | Cc1ccn2cc(CC(=O)N3CCC4(CC3)CN([C@@H]3CCc5cc(-c6cc(C#N)ncn6)ccc53)C4)nc2c1 [Example 3AP] | –
– | – | 4.5 | 3.77 | O=C(Cc1ccc(C2CC2)cc1)N1CCC2(CC1)CN([C@@H]1CCc3cc(-c4ncccn4)ccc31)C2 [Example 5A-1, (R)-7-[(4-cyclopropylphenyl)acetyl]-2-(5-pyrimidin-2-yl-2,3-dihydro-1H-inden-1-yl)-2,7-diazaspiro[3.5]nonane] | –
– | – | 82.3 | 66.4 | COc1ccc(CC(=O)N2CCC3(CC2)CN([C@@H]2CCc4cc(-n5cccn5)ccc42)C3)nc1 [Example 8C] | –
– | – | 117 | 102 | Cc1ccc(CC(=O)N2CCC3(CC2)CN([C@@H]2CCc4cc(-c5ccc(C(N)=O)nc5)ccc42)C3)nc1 [Example 9C] | –
– | – | 33.7 | 29.2 | NC(=O)c1ccc(-c2ccc3c(c2)CC[C@H]3N2CC3(CCN(C(=O)Cc4cn5ccccc5n4)CC3)C2)cn1 [Example 9E] | –
– | – | 94.7 | 82.9 | COc1ccc(CC(=O)N2CCC3(CC2)CN([C@@H]2CCc4cc(-c5cc(C(N)=O)ncn5)ccc42)C3)nc1 [Example 10D] | –
– | – | 141 | 123 | CCc1ccc(CC(=O)N2CCC3(CC2)CN([C@@H]2CCc4cc(-c5cnc(C(N)=O)cn5)ccc42)C3)nc1 [Example 10H] | –
